Laboratory results published in patent US9650339B2, “Inhibitors of histone demethylases” (Gilead Sciences, Inc., priority 2013, dated 2017).
pIC50: −log10 of the molar value.

Assays:
KDM4B (JMJD2B) = target: T1, KDM4B (JMJD2B) (Homo sapiens, UniProt O94953); experiment: Histone lysine demethylase AlphaLISA assay, KDM4B; assay type: biochemical; conditions: read-out: KDM4B HDME Inhibition IC50
T1 construct: 2-500; purchased BPS; host or cells: Bac (baculovirus system)
T1 sequence (O94953 2-500): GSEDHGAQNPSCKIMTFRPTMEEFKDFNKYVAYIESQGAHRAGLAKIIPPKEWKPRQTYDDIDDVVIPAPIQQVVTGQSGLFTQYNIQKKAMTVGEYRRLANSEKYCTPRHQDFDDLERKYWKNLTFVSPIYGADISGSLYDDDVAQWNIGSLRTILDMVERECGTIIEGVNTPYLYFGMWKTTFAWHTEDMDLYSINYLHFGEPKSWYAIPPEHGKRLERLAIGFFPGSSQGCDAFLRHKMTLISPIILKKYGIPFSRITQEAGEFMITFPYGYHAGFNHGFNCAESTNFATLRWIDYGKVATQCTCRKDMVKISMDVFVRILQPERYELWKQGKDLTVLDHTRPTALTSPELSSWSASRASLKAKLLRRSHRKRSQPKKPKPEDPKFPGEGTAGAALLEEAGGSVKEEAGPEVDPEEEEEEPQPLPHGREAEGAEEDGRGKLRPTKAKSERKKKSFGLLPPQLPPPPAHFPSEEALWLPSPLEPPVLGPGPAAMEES
Description: (§1) Assays are performed analogously to the protocol described by PerkinElmer (Roy et al. PerkinElmer Technical Note: AlphaLISA #12, April 2011)
(§2) Enzymes are dissolved in enzyme buffer and incubated for 10 min before being added to 3% DMSO solutions of compounds in enzyme buffer. Incubated for another 10 minutes, before substrate solution is added and the reaction mixture is incubated at room temperature. 10 μL acceptor beads, suspended in Epigenetic Buffer (Perkin Elmer AL008) from stock, are added and the suspension is incubated in the dark at room temperature, before a suspension of streptavidin donor beads (Perkin Elmer 6760002) in Epigenetic Buffer is added. After incubation at room temperature in the dark the plates are read.
BK9M3: Biotin-ARTKQTAR(KMe3)STGGKAPRKQ-NH2 (Caslo, Denmark) […]
(§3) Substrate Solution: Substrate, 25 μM L-Asc, and 10 μM α-KG in Buffer A.

KDM5B = target: T2, KDM5B (Homo sapiens, UniProt Q9UGL1); experiment: Histone lysine demethylase immunofluorescence assay, U2OS cells transfected with KDM5B; assay type: cell-based; conditions: U2OS cells transfected with pCMVHA KDM5B; mark detected H3K4me2; 20 hours
T2 construct: (a.a. 1-752); host or cells: U2OS
T2 sequence (Q9UGL1 1-752): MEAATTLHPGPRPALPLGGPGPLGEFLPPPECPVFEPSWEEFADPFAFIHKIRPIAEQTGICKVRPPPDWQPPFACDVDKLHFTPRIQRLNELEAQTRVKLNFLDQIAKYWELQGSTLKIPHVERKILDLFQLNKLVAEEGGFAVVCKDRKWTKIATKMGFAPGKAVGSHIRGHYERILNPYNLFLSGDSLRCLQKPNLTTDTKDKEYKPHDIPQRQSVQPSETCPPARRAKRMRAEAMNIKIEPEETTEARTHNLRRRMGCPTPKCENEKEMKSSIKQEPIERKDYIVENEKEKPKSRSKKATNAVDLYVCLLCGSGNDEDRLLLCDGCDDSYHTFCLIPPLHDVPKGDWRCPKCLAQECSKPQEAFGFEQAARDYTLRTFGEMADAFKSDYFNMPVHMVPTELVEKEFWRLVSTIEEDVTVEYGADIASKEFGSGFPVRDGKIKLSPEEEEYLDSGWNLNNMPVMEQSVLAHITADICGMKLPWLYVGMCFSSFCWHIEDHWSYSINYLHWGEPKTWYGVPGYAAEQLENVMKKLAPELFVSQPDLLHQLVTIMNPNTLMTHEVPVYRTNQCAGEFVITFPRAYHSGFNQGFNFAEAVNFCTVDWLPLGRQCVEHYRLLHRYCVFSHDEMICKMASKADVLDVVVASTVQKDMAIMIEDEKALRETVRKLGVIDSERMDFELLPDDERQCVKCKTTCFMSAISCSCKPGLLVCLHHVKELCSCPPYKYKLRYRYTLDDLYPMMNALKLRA
Description: U2OS cells were seeded 24 hours before transfection. Transfection was performed with Fugene HD transfection reagent as recommended by the manufacturer. 6 hours after transfection, the cells were harvested and seeded into multi well plates into media containing compound. The media used was DMEM containing 10% FBS and pen/strep. 20 hours after incubation of cells with compounds, the cells were washed in PBS, harvested by fixation with formaldehyde 4% aqueous solution, and washed in PBS. Subsequently, the cells were permeabilized in PBS with 0.2% Triton X-100 for. Blocking was performed in PBS with 0.2% Triton X-100 and 5% FBS. The cells were incubated with primary antibodies in blocking solution over night at 4° C. The primary antibodies used in the assays were HA.11 (Covance, MMS-101P) and the antibody detecting the mark specified in the table below. After incubation with primary antibodies, the cells were washed with PBS, incubated with secondary antibodies (Alexa fluor 594 goat anti rabbit IgG, Invitrogen, A11012; Alexa flour 488 donkey anti mouse IgG, Invitrogen, A21202) and Hoechst, (Sigma, 33342) in blocking solution, and washed again with PBS. Finally, PBS was added and high throughput imaging and analysis were performed by an IN Cell Analyzer 1000 (GE Healthcare). The robot software analyzed individual cells and divided these into HA+ (transfected cells) and HA− (non-transfected cells). The IC50 values were based on an average measure of the staining of the mark specified in the table below in the transfected cells.

KDM7 (PHF8) = target: T3, KDM7 (PHF8) (Homo sapiens, UniProt Q9UPP1); experiment: Histone lysine demethylase AlphaLISA assay, KDM7; assay type: biochemical; conditions: read-out: PHF8 HDME Inhibition IC50
T3 construct: KDM7 (PHF8); BRIC; 1-1322; Bac
T3 sequence (Q9UPP1 37-440 limits assumed): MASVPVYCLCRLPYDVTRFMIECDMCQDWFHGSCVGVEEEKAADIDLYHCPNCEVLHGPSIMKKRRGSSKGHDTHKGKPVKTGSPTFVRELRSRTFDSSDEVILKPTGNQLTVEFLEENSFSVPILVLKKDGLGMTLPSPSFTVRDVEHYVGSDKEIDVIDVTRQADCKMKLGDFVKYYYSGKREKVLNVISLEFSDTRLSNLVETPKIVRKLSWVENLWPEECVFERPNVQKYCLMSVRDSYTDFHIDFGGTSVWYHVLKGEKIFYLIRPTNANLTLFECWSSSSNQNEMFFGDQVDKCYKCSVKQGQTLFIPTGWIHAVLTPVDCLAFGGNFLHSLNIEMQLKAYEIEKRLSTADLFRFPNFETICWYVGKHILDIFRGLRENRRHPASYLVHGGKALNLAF
Description: as §1
as §2, with “read. […]” for “read.”
BK9M2: Biotin-ARTKQTAR(KMe2)STGGKAPRKQ-NH2 (AnaSpec 64359)
BK9M1: Biotin-ARTKQTAR(KMe1)STGGKAPRKQ-NH2 (AnaSpec 64358) […]
as §3

| pIC50 (KDM4B (JMJD2B)) | pIC50 (KDM5B) | pIC50 (KDM7 (PHF8)) | SMILES |
| --- | --- | --- | --- |
| < 5.60 |  | < 5.60 | CCCCCCCC/N=C/c1ccnc(CNCC(=O)N(CC)CC)c1 [Compound 58, N,N-diethyl-2-[({4-[(octylimino)methyl]-pyridin-2-yl}methyl)amino]-acetamide] |
|  | > 6.60 | < 5.60 | CCN(CCN(C)C)C(=O)CNCc1cc(C2OCC3(CC3)CN2C(=O)C(F)(F)F)ccn1 (centres unmarked) [Compound 91, N-[2--(dimethylamino)-ethyl]-N-ethyl-2-[({4-[7-(trifluoroacetyl)-5-oxa-7-azaspiro[2.5]-octan-6-yl]pyridin-2-yl}methyl)amino]-acetamide] |
|  | < 5.60 | < 5.60 | CN(C)C/C=C\CNCc1cc(C=O)ccn1 [Compound 99, 2-({[(2Z)-4-(dimethylamino)-but-2-en-1-yl]amino}methyl)-pyridine-4-carbaldehyde] |
|  | > 6.60 | < 5.60 | CN(C)CCCCNCc1cc(C=O)ccn1 [Compound 108, 2-({[4-(dimethylamino)-butyl]amino}methyl)-pyridine-4-carbaldehyde] |
|  | < 5.60 | > 6.60 | CCN(CC)CCCCNC(=O)CNCc1cc(C=O)ccn1 [Compound 112, N-[4-(diethylamino)-butyl]-2-{[(4-formylpyridin-2-yl)methyl]amino}-acetamide] |
|  | > 6.60 | 5.60 to 6.60 | CCN(CC)CCCCN(Cc1cc(C=O)ccn1)C(=O)C(F)(F)F [Compound 115, N-[4-(diethylamino)butyl]-2,2,2-trifluoro-N-[(4-formylpyridin-2-yl)methyl]acetamide] |
|  | < 5.60 | 5.60 to 6.60 | CN(CC(=O)N1CCCCC1)Cc1cc(C=O)ccn1 [Compound 120, 2-({methyl[2-oxo-2-(piperidin-1-yl)ethyl]amino}-methyl)pyridine-4-carbaldehyde] |

The remaining lines, values behind:

| SMILES | pIC50 (KDM4B (JMJD2B)) | pIC50 (KDM5B) | pIC50 (KDM7 (PHF8)) |
| --- | --- | --- | --- |
| CCN(CC)CCCCNCc1cc(CNC(=O)C(F)(F)F)ccn1 [Compound 1, N-{[2-({[4-(diethylamino)butyl]-amino}methyl)pyridin-4-yl]methyl}-2,2,2-trifluoroacetamide] | > 6.60 | > 6.60 | 5.60 to 6.60 |
| C(=N\C1CC1)/c1ccnc(CNCCCCN2CCC2)c1 [Compound 44, N-{[2-({[4-(azetidin-1-yl)butyl]amino}methyl)-pyridin-4-yl]methylidene}-cyclopropanamine] | < 5.60 |  | < 5.60 |
| CN(CCCn1cccn1)C(=O)CNCc1cc(/C=N/C2CC2)ccn1 [Compound 52, 2-[({4-[N-cyclopropyl-carboximidoyl]-pyridin-2-yl}methyl)amino]-N-methyl-N-[3-(1H-pyrazol-1-yl)propyl]acetamide] | > 6.60 | 5.60 to 6.60 |  |
| CCN(CC)C(=O)CNCc1cc(/C=N/CCC2CCCCC2)ccn1 [Compound 57, 2-[({4-[[(2-cyclohexylethyl)imino]-methyl]pyridin-2-yl}methyl)amino]-N,N-diethylacetamide] | > 6.60 |  | < 5.60 |
| CCN(CC)CCCCNCc1cc(/C=N/CCOC)ccn1 [Compound 60, [4-(diethylamino)butyl]-({4-[[(2-methoxyethyl)imino]-methyl]pyridin-2-yl}methyl)amine] | > 6.60 |  | 5.60 to 6.60 |
| CCN(CCN(C)C)C(=O)CNCc1cc(C2OCC(Cc3ccccc3)CN2C(=O)C(F)(F)F)ccn1 (centres unmarked) [Compound 90, 2-[({4-[5-benzyl-3-(trifluoroacetyl)-1,3-oxazinan-2-yl]pyridin-2-yl}methyl)amino]-N-[2-(dimethylamino)-ethyl]-N-ethylacetamide] |  | > 6.60 | < 5.60 |
| CN(Cc1ccccc1F)C(=O)CNCc1cc(/C=N/CCO)ccn1 [Compound 92, N-[(2-fluorophenyl)methyl]-2-[({4-[[(2-hydroxyethyl)imino]-methyl]pyridin-2-yl}methyl)amino]-N-methylacetamide] |  | < 5.60 | < 5.60 |
| OCC/N=C/c1ccnc(CNCCc2ccccc2OCc2ccccc2)c1 [Compound 93, 2-[({2-[({2-[2-(benzyloxy)phenyl]-ethyl}amino)methyl]-pyridin-4-yl}methylidene)-amino]ethan-1-ol] |  | < 5.60 | < 5.60 |
| CCN(CCC#N)C(=O)CNCc1cc(/C=N/CCO)ccn1 [Compound 94, N-(2-cyanoethyl)-N-ethyl-2-[({4-[[(2-hydroxyethyl)imino]-methyl]pyridin-2-yl}methyl)amino]-acetamide] |  | 5.60 to 6.60 | 5.60 to 6.60 |
| CC(C)C[C@H](NCc1cc(/C=N/CCO)ccn1)C(=O)N1CCCCC1 [Compound 95, (2S)-2-[({4-[[(2-hydroxyethyl)imino]-methyl]pyridin-2-yl}methyl)amino]-4-methyl-1-(piperidin-1-yl)pentan-1-one] |  | < 5.60 |  |
| CN(C)CC1CCC(CNCc2cc(C=O)ccn2)CC1 (centres unmarked) [Compound 97, 2-{[({4-[(dimethylamino)-methyl]cyclohexyl}-methyl)amino]-methyl}pyridine-4-carbaldehyde] |  | > 6.60 | < 5.60 |
| CN1CCC(CNCc2cc(C=O)ccn2)CC1 [Compound 100, 2-({[(1-methyl-piperidin-4-yl)methyl]amino}-methyl)pyridine-4-carbaldehyde] |  | > 6.60 | < 5.60 |
| CCN(CC)C(=O)CNCc1cc(C=O)ccn1 [Compound 105, N,N-diethyl-2-{[(4-formylpyridin-2-yl)methyl]amino}-acetamide] | > 6.60 | 5.60 to 6.60 |  |
| CN(C)CCNCc1cc(C=O)ccn1 [Compound 110, 2-({[2-(dimethylamino)-ethyl]amino}methyl)-pyridine-4-carbaldehyde] |  | 5.60 to 6.60 | < 5.60 |
| CCN(CC(C)(C)N(C)C)C(=O)CNCc1cc(C=O)ccn1 [Compound 118, N-[2-(dimethylamino)-2-methylpropyl]-N-ethyl-2-{[(4-formylpyridin-2-yl)methyl]amino}-acetamide] |  | > 6.60 | 5.60 to 6.60 |
